# Reference: patent US20160324149A1, “ADJUVANTS FOR PLANT GROWTH REGULATORS” (VERDESIAN LIFE SCINCES, LLC, priority 2014, published 2016)
# Test system: soybean seedlings
# Experiment: Soybean seedling spray test, dry weight one week later
# Format: in vivo
# Details: for Mean Plant Dry Wt. / Total Dry Wt.: sprayed at 20 gallons per acre, harvested one week later
# Description: In this test, soybean seedlings at true leaf emergence were sprayed with a series of aqueous test solutions at a rate of 20 gallons per acre. In those solutions including AVAIL®, use was made of AVAIL® for liquid phosphate fertilizers. The beans were then harvested one week later and were counted, dried, and weighed, and average weight per plant was determined.
smiles,measurement,setting,value
C=C1C[C@]23C[C@@]1(O)CC[C@H]2[C@@]12C=C[C@H](O)[C@@](C)(C(=O)O1)[C@H]2[C@@H]3C(=O)O [gibberellic acid],Mean plant dry weight as gibberellic acid concentration increased,50-500 ppm,the mean plant dry weight also increased
same,Mean Plant Dry Wt.,50 ppm gibberellic acid,1.594 g
same,Total Dry Wt.,50 ppm gibberellic acid,17.53 g
same,Mean Plant Dry Wt.,100 ppm gibberellic acid,1.808 g
same,Total Dry Wt.,100 ppm gibberellic acid,18.08 g
same,Mean Plant Dry Wt.,250 ppm gibberellic acid,1.718 g
same,Total Dry Wt.,250 ppm gibberellic acid,20.61 g
same,Mean Plant Dry Wt.,500 ppm gibberellic acid,2.280 g
same,Total Dry Wt.,500 ppm gibberellic acid,22.80 g
